Source: US20250352539A1, “COMBINATION THERAPY FOR TREATING CANCER” (AstraZeneca AB, priority 2022, published 2025)
Where two headings read alike, the source gives them in different places.

Assays:
Assay in all cases: 144-hour CellTiter-Glo 2.0 proliferation assay
Format in all cases: cell-based
HT-115 = conditions: HT115; HT-115 colorectal; monotherapy; read-out: mono GI50
Protocol: (§1) Combination profiling was carried out in a panel of cancer cell lines utilising Horizon Discovery's High Throughput Screening platform.
(§2) Cell lines that have been preserved in liquid nitrogen are thawed and expanded in growth media (see Table 1). Once cells have reached expected doubling times, screening begins. Cells are seeded in 25 μl of growth media in black 384-well tissue culture treated plates (seeding density as noted in Table 11).
(§3) Cells are equilibrated in assay plates via centrifugation and placed at 37° C. 5% CO2 for twenty-four hours before treatment.
(§4) Compounds are transferred to assay plates using and Echo acoustic liquid handling system. 25 nl of each compound was added at the appropriate concentration for all combination dose points. Therefore, final assay volume would be […]. Assay plates are incubated with compound for 6 days and are then analysed using CellTiter-Glo 2.0. All data points are collected via automated processes and are subject to quality control and analysed.
(§5) Growth Inhibition (GI) is reported as a measure of cell growth. The GI percentages are calculated by applying the following test and equation: […]
(§6) where T is the signal measure for a test article, V is the untreated/vehicle-treated control measure, and Vo is the untreated/vehicle control measure at time zero (also colloquially referred as T0 plates). This formula is derived from the Growth Inhibition calculation used in the National Cancer Institute's NCI-60 high throughput screen. For the purposes of this report, all data analysis was performed in Growth Inhibition (except where noted).

GCIY = conditions: Homo sapiens; GCIY gastric; monotherapy; read-out: mono GI50
Protocol: as §1, §2, §3, §4, §5, §6

TOV-21G = conditions: Homo sapiens, TOV21G; TOV-21G ovarian; monotherapy; read-out: mono GI50
Protocol: as §1, §2, §3, §4, §5, §6

KE-39 = KE-39 gastric; monotherapy; read-out: mono GI50
Protocol: as §1, §2, §3, §4, §5, §6

OVSAHO = conditions: Homo sapiens; OVSAHO ovarian; monotherapy; read-out: mono GI50
Protocol: as §1, §2, §3, §4, §5, §6

JHOM-1 = JHOM-1 ovarian; monotherapy; read-out: mono GI50
Protocol: as §1, §2, §3, §4, §5, §6

OV7 = OV7 ovarian; monotherapy; read-out: mono GI50
Protocol: as §1, §2, §3, §4, §5, §6

CFPAC-1 = conditions: Homo sapiens; CFPAC-1 pancreatic; monotherapy; read-out: mono GI50
Protocol: as §1, §2, §3, §4, §5, §6

NCI-SNU-1 = NCI-SNU-1 gastric; monotherapy; read-out: mono GI50
Protocol: as §1, §2, §3, §4, §5, §6

SNU-668 = conditions: SNU668; SNU-668 gastric; monotherapy; read-out: mono GI50
Protocol: as §1, §2, §3, §4, §5, §6

PSN1 = conditions: monotherapy, read-out: mono GI50
Protocol: as §1, §2, §3, §4, §5, §6

A2780 = conditions: Homo sapiens; A2780 ovarian; monotherapy; read-out: mono GI50
Protocol: as §1, §2, §3, §4, §5, §6

IM-95 = conditions: Homo sapiens, IM95; IM-95 gastric; monotherapy; read-out: mono GI50
Protocol: as §1, §2, §3, §4, §5, §6

LMSU = LMSU gastric; monotherapy; read-out: mono GI50
Protocol: as §1, §2, §3, §4, §5, §6

SW837 = conditions: Homo sapiens; SW837 colorectal; monotherapy; read-out: mono GI50
Protocol: as §1, §2, §3, §4, §5, §6

## C[C@@H]1COCCN1c1cc(C2([S@](C)(=N)=O)CC2)nc(-c2ccnc3[nH]ccc23)n1 [AZD6738, 4-{4-[(3R)-3-Methylmorpholin-4-yl]-6-[1-((R)—S-methylsulfonimidoyl)cyclopropyl]pyrimidin-2-yl}-1H-pyrrolo[2,3-b]-pyridine]
HT-115
  GI50: 1610 nM
GCIY
  GI50: 179 nM
TOV-21G
  GI50: 374 nM
KE-39
  GI50: 1470 nM
OVSAHO
  GI50: 581 nM
JHOM-1
  GI50: 939 nM
OV7
  GI50: 1920 nM
CFPAC-1
  GI50: 757 nM
NCI-SNU-1
  GI50: 1090 nM
SNU-668
  GI50: 291 nM
PSN1; Homo sapiens, PSN1, PSN1 pancreatic
  GI50: 858 nM
PSN1; PSN1 pancreatic
  GI50: 746 nM
A2780
  GI50: 667 nM
IM-95
  GI50: 250 nM
LMSU
  GI50: 1710 nM
SW837
  GI50: 924 nM
